Literature values, collected in patent publication US9393230B2, “Pharmaceutical composition on the basis of phyto-nutrients with increased bioavailability, having anti-tumor activity, and method for producing said composition (alternatives)” (Nordic Labs Limited, priority 2012, dated 2016).

Which solubility in water does the source give for `O=C(O[C@@H]1Cc2c(O)cc(O)cc2O[C@@H]1c1cc(O)c(O)c(O)c1)c1cc(O)c(O)c(O)c1` [epigallo-3-catechin, epigallocatechol-3-gallate] here?
Its solubility in water is “water-soluble”.
